Measurements from patent US20150119329A1, “MODULATION OF ANGIOTENSIN II RECEPTORS FOR THE PREVENTION AND TREATMENT OF MALARIA CEREBRAL” (NEW YORK UNIVERSITY, priority 2012, published 2015).
Peptide text beside a SMILES is read from it.

Columns and labels:
[1] = tested on: human brain microvascular endothelial cells (HBMECs); assay: iRBC-induced disruption of interendothelial junctions and detachment of HBMEC monolayer (nuclei count, PrestoBlue viability); assay type: cell-based; conditions: P. falciparum iRBCs over HBMECs, 18 hours; compound 10^−5 M
Description: Cell viability assay. To assess the viability of the adherent HBMECs PrestoBlue Cell Viability Reagent (Invitrogen) was utilized. […] After 18 hours, the plates were washed twice with PBS, and PrestoBlue Cell Viability Reagent diluted 1:10 with medium, was added. Samples were then incubated for 3 hours at 37° C. PrestoBlue is reduced from blue resazurin to red resorufin in the presence of viable cells. The absorbance (595 nm) was read with a Victor X3 plate reader.

P. berghei ANKA [2] = assay: Brain histopathology (hemorrhages, blood brain barrier integrity) in cerebral malaria mouse model; assay type: in vivo; conditions: Losartan 10 mg/Kg/d, CGP-42112A 500 ng/min/kg
Description: Cerebral Malaria Experimental Mouse Model. Female C57BL/6J mice were obtained from Taconic Farms Inc. All mice were maintained under barrier conditions. Water and normal laboratory diet were available ad libitum. The infection was performed by inoculating i.p. 10^6 infected erythrocytes with P. berghei ANKA. All procedures involving animals conformed to the Guide for the Care and Use of Laboratory Animals published by US National Institutes of Health (NIH Publication No. 85-23, revised 1985) and were performed with the approval of the Animal Care and Use Committee at the University of New York. Alzet osmotic minipumps (Model 1002; ALZA Scientific Products, Mountain View, Calif., USA) were implanted into C57BL/6J mice at 4 months of age. Pumps were filled either with saline vehicle or solution of CGP-42112A (Sigma Chemical Co.) that delivered (subcutaneously) at 500 ng/min/kg for the duration of the study. Pumps were placed into the subcutaneous space of subcutaneous bupivacaine anesthetized mice through a small incision on the animal back slightly posterior of the shoulder blades that was closed with Reflex 7 mm wound closure system (ALZA Scientific Products, Mountain View, Calif., USA).

P. berghei ANKA [3] = assay: Cerebral malaria experimental mouse model (development of cerebral malaria, mortality); assay type: in vivo; conditions: C57BL/6J mice infected with P. berghei ANKA; Losartan 10 mg/Kg/d in drinking water; compared with vehicle treatment

SMILES	damage to HBMECs caused by rupture and release of iRBCs, compared to control [1] [%]	quantification of hemorrhages in brain histological slices (P. berghei ANKA [2]; brains of infected mice (FIG. 4))	structure of the brain vessels and integrity of the blood brain barrier (BBB) (P. berghei ANKA [2]; brains of infected mice, Hematoxillin/Eosin, versus untreated groups)	reduction of mortality (P. berghei ANKA [3])
CC[C@H](C)[C@H](NC(=O)[C@@H]1CCCN1C(=O)[C@H](Cc1c[nH]cn1)NC(=O)[C@H](CCCCNC(=O)[C@H](CCCNC(=N)N)NC(=O)OCc1ccccc1)NC(=O)[C@H](Cc1ccc(O)cc1)NC(=O)c1cccnc1)C(=O)O [CGP-42112A, (25,35)-2-[[(25)-1-[(25)-2-[[(25)-6-[[(25)-5-(diaminomethylideneamino)-2-(phenylmethoxy-carbonylamino)pentanoyl]amino]-2-[[(25)-3-(4-hydroxyphenyl)-2-(pyridine-3-carbonylamino)propanoyl]amino]hexanoyl]amino]-3-(1H-imidazol-5-yl)propanoyl]pyrrolidine-2-carbonyl]amino]-3-methylpentanoic acid] (HELM PEPTIDE1{[O=C(c1cccnc1)[*:2]].Y.K.H.P.I}|PEPTIDE2{[O=C(OCc1ccccc1)[*:2]].R}$PEPTIDE1,PEPTIDE2,3:R3-2:R2$$$V2.0)	20	protective effect	better maintained	–
CCCCc1nc(Cl)c(CO)n1Cc1ccc(-c2ccccc2-c2nnn[nH]2)cc1 [Losartan, (2-butyl-4-chloro-1-{[2′-(1H-tetrazol-5-yl)biphenyl-4-yl]methyl]-1H-imidazol-5-yl)methanol]	–	–	–	4-5 times
